US12331053B2, “Method for obtaining amorphous remimazolam besylate” (MOEHS IBERICA, S.L., priority 2019, dated 2025)
Like-named read-outs stand apart in the source and are kept apart here.

Tests used:
[1] = Stability study: storage in climatic chambers, solid form checked by XRPD and DSC; assay type: physicochemical; details: for solid form stability after storage (XRPD) / solid form stability after storage (XRPD, DSC): 40° C. and 80% relative humidity; for solid form stability after storage (XRPD): 6 months
Description: The XRPD analysis was performed using a Siemens model D-5000 X-ray powder diffractometer equipped with a copper anode. The radiation used is CuKα with a wavelength of 1.541838 Å. Scanning parameters: 4-50 degrees 2θ, continuous scan, ratio: 1.2 degrees/minute.
The differential scanning calorimetry (DSC) analysis was performed in a Mettler Toledo 822e apparatus with STARe SW15.00 software. Parameters: range of heating from 25 to 300° C. with a ramp of 20° C./min and a N2 flow of 50 mL/min. The measurement was taken with a closed perforated capsule.
This is proven in the stability results of the product in amorphous form obtained according to assays 1.5 (lyophilization in acetonitrile) and 1.6 (lyophilization in water) indicated in Table 1. To determine said stability, the product was stored in climatic chambers under two different conditions: a) temperature of 40° C. and 80% relative humidity and b) temperature of 25° C. and 60% relative humidity.

[2] = free base, cited from earlier work
[3] = lyophilized alone, without excipients; cited from earlier work

COC(=O)CC[C@@H]1N=C(c2ccccn2)c2cc(Br)ccc2-n2c(C)cnc21.O=S(=O)(O)c1ccccc1 [Comparative Example 3, remimazolam besylate]
solid form after storage (XRPD) ([1]; 4° C., one month): crystalline form 2 | solid form after storage (XRPD, DSC) ([1]; 40° C. and 80% RH, one week): crystalline form 2

COC(=O)CC[C@@H]1N=C(c2ccccn2)c2cc(Br)ccc2-n2c(C)cnc21.O=S(=O)(O)c1ccccc1 [Assay 1.6, remimazolam besylate]
solid form stability after storage (XRPD) [1]: still maintains the initial characteristics in terms of the amorphous form | solid form stability after storage (XRPD, DSC) ([1]; 15 days): still maintains the initial characteristics in terms of the amorphous form

COC(=O)CC[C@@H]1N=C(c2ccccn2)c2cc(Br)ccc2-n2c(C)cnc21 [remimazolam, methyl 3-{(4S)-8-bromo-1-methyl-6-(pyridin-2-yl)-4H-imidazo[1,2-a][1,4]benzodiazepin-4-yl}propanoate]
storage stability ([2]; 40° C. and 75% relative humidity, open vial): behaves like a deliquescent solid | storage stability ([2]; 60° C. and ambient humidity, closed vial): behaves like a deliquescent solid | storage stability ([2]; stored at 5° C.): stable

COC(=O)CC[C@@H]1N=C(c2ccccn2)c2cc(Br)ccc2-n2c(C)cnc21.O=S(=O)(O)c1ccccc1 [remimazolam besylate]
stability after lyophilization [3]: did not result in satisfactory stability

COC(=O)CC[C@@H]1N=C(c2ccccn2)c2cc(Br)ccc2-n2c(C)cnc21.O=S(=O)(O)c1ccccc1 [Assay 1.5, remimazolam besylate]
solid form stability after storage (XRPD) [1]: still maintains the initial characteristics in terms of the amorphous form | solid form stability after storage (XRPD, DSC) ([1]; 15 days): still maintains the initial characteristics in terms of the amorphous form | solid form stability after storage (XRPD, DSC) ([1]; 30 days): still maintains the initial characteristics in terms of the amorphous form
